Reference: publication PMC7316778 (Nature Communications, 2020)
Read-outs that look alike come from different tables or passages of the source.

Tests used:
Assay in all cases: SelectScreen kinase assay
AURKA (Aurora A) = molecular target: T1, AURKA (Aurora A) (Homo sapiens, UniProt O14965)
T1 sequence (O14965 1-403): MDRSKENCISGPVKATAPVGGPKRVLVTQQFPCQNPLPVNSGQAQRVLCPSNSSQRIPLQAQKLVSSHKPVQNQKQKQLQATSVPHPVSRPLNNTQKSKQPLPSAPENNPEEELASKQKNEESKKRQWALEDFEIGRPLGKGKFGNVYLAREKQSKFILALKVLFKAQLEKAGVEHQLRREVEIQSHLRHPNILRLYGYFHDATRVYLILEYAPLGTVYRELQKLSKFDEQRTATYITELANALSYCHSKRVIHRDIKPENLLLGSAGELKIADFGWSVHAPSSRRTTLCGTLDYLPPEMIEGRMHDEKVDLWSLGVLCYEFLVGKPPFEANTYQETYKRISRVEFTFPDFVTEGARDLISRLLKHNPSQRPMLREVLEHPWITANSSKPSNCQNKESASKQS
Procedure: (§1) Selectivity profiling assays were performed by the Invitrogen SelectScreen™ Services. […] The concentration of ATP was selected to be equal to the KM, unless indicated otherwise.

EPHA2 = EPHA2 (Homo sapiens, UniProt P29317)
Procedure: as §1

GAK = molecular target: T2, GAK (Homo sapiens, UniProt O14976)
T2 sequence (O14976 1-1311): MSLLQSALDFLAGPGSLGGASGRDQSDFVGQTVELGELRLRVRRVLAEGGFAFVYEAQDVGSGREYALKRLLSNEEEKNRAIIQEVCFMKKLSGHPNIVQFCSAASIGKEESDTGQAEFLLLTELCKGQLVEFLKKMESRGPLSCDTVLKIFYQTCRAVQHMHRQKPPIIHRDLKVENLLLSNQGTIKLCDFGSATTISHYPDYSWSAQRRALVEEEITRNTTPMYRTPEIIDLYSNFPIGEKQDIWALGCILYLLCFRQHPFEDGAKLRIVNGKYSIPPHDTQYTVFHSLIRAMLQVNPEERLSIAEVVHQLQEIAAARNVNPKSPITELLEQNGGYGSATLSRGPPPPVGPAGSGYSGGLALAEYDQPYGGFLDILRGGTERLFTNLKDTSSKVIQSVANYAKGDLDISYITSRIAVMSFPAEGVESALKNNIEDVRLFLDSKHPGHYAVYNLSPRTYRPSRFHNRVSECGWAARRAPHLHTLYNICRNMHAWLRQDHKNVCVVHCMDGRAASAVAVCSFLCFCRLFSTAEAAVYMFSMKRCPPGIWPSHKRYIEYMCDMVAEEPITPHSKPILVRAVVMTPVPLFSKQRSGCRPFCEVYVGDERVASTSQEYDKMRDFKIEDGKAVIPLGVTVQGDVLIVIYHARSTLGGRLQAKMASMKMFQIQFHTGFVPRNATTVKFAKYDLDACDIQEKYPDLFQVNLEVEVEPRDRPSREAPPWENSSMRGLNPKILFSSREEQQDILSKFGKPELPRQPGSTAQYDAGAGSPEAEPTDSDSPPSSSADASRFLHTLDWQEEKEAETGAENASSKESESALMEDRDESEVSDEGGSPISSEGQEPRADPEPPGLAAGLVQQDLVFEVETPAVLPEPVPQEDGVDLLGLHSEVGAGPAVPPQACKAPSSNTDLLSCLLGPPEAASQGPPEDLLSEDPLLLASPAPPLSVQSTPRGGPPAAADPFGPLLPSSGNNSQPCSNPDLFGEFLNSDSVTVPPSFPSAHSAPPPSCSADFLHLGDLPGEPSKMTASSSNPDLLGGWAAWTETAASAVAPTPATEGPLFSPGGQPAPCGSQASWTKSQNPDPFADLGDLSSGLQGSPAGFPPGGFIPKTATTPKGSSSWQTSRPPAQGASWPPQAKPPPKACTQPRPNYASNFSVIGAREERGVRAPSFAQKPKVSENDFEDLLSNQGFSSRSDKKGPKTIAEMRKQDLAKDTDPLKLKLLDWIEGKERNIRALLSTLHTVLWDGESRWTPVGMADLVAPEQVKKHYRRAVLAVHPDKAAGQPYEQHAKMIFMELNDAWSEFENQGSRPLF
Procedure: as §1

HIPK4 = molecular target: T3, HIPK4 (Homo sapiens, UniProt Q8NE63)
T3 sequence (Q8NE63 1-616): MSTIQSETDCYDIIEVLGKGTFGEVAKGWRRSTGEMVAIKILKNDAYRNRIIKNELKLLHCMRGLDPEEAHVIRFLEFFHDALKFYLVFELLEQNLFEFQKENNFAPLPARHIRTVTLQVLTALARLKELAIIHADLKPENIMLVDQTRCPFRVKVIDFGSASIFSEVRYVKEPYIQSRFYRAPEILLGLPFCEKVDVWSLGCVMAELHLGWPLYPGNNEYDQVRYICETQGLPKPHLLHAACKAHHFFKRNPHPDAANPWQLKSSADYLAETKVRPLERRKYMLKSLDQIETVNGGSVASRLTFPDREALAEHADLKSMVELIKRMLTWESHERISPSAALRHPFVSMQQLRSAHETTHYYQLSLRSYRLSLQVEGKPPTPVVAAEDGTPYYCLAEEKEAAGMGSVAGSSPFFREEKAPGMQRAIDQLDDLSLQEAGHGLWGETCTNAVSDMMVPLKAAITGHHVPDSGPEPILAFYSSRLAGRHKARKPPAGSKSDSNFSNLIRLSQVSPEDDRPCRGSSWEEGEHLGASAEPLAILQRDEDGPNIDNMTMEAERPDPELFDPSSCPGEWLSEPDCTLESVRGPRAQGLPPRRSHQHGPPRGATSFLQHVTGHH
Procedure: as §1

MAP2K2 (MEK2) = MAP2K2 (MEK2) (Homo sapiens, UniProt P36507)
Procedure: as §1

[1] = 1 h, 1 μM WEL028, 1 h preincubation
[2] = IC50 on that kinase divided by IC50 on FES^S700C

Chain of MAP2K2 (MEK2) (P36507 whole entry, species assumed): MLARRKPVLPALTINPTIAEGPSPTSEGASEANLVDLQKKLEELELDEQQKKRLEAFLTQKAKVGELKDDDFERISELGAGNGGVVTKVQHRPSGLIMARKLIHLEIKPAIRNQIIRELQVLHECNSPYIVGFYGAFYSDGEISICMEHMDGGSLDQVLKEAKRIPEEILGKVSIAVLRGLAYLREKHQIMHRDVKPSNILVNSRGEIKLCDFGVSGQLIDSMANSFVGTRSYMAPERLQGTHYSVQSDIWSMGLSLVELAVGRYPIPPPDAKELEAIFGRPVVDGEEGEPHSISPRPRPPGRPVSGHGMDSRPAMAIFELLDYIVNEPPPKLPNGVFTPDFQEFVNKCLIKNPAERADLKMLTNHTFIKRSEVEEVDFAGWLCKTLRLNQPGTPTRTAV
Chain of EPHA2 (P29317 24-976): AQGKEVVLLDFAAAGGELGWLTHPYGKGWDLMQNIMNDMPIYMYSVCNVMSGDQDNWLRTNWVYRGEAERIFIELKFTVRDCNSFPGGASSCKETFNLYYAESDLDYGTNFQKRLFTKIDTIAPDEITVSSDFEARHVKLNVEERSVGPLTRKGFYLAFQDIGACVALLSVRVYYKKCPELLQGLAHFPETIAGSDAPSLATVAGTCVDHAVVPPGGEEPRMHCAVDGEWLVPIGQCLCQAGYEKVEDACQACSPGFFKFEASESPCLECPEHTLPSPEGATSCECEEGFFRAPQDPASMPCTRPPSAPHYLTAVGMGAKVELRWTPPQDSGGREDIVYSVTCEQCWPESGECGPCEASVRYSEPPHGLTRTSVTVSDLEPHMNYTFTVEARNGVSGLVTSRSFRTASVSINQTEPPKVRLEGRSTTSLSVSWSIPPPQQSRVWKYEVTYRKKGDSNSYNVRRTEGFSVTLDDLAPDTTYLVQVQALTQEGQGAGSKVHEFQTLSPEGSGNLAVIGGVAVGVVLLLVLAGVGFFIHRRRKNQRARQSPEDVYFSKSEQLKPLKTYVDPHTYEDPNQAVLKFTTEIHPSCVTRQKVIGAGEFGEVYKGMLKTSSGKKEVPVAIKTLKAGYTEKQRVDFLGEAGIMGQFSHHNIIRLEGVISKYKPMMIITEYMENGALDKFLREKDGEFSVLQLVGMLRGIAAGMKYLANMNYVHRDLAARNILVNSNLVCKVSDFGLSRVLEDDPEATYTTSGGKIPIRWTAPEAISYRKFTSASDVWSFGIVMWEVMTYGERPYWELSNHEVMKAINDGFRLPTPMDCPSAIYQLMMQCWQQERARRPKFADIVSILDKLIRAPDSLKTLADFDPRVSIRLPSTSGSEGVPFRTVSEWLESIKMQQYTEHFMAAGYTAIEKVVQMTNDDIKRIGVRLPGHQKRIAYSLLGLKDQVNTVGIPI

Compound: C#CCOc1ccc(Nc2ncc(Cl)c(Nc3ccccc3NC(=O)C=C)n2)c(OC)c1 [Compound 6]
- IC50 (AURKA (Aurora A)): 0.631 µM
- inhibition at 1 µM (AURKA (Aurora A); [1]): 74%
- inhibition at 10 µM (AURKA (Aurora A); 1 h, log[inhibitor] (M) -5.00, ZLYTE, ATP Km app): 100%
- inhibition at 3.31 µM (AURKA (Aurora A); 1 h, log[inhibitor] (M) -5.48, ZLYTE, ATP Km app): 90%
- inhibition at 1.12 µM (AURKA (Aurora A); 1 h, log[inhibitor] (M) -5.95, ZLYTE, ATP Km app): 69%
- inhibition at 0.372 µM (AURKA (Aurora A); 1 h, log[inhibitor] (M) -6.43, ZLYTE, ATP Km app): 46%
- inhibition at 0.123 µM (AURKA (Aurora A); 1 h, log[inhibitor] (M) -6.91, ZLYTE, ATP Km app): 28%
- inhibition at 0.04074 µM (AURKA (Aurora A); 1 h, log[inhibitor] (M) -7.39, ZLYTE, ATP Km app): 16%
- inhibition at 0.0138 µM (AURKA (Aurora A); 1 h, log[inhibitor] (M) -7.86, ZLYTE, ATP Km app): 8%
- inhibition at 0.004571 µM (AURKA (Aurora A); 1 h, log[inhibitor] (M) -[…], ZLYTE, ATP Km app): 3%
- Inhibition at 1 µM (%) (AURKA (Aurora A); AURKA (Aurora A), 1 µM, ZLYTE, ATP Km app, listed as WEL028, 1 µM): 70%
- Apparent fold selectivity (AURKA (Aurora A); [2]): 155 fold
- inhibition at 1 µM (AURKA (Aurora A); read-out: Inhibition at 1 µM (%), AURKA (Aurora A), 1 µM, ZLYTE, ATP Km app): 78%
- inhibition at 1 µM (EPHA2; [1]): 7%
- Inhibition at 1 µM (%) (EPHA2; EPHA2, 1 µM, ZLYTE, ATP Km app): 13%
- IC50 (GAK): 0.0126 µM
- inhibition at 1 µM (GAK; [1]): 108%
- Inhibition at 1 µM (%) (GAK; GAK, 1 µM, LanthaScreen Binding, listed as WEL028, 1 µM): 109%
- Apparent fold selectivity (GAK; [2]): 3 fold
- inhibition at 1 µM (GAK; read-out: Inhibition at 1 µM (%), GAK, 1 µM, LanthaScreen Binding): 108%
- inhibition at 1 µM (HIPK4; [1]): 14%
- Inhibition at 1 µM (%) (HIPK4; HIPK4, 1 µM, ZLYTE, ATP Km app, listed as WEL028, 1 µM): 16%
- inhibition at 1 µM (HIPK4; read-out: Inhibition at 1 µM (%), HIPK4, 1 µM, ZLYTE, ATP Km app): 12%
- IC50 (MAP2K2 (MEK2)): 0.251 µM
- inhibition at 1 µM (MAP2K2 (MEK2); [1]): 106%
- inhibition at 10 µM (MAP2K2 (MEK2); 1 h, log[inhibitor] (M) -5.00, ZLYTE, ATP 100): 104%
- inhibition at 3.311 µM (MAP2K2 (MEK2); 1 h, log[inhibitor] (M) -5.48, ZLYTE, ATP 100): 103%
- inhibition at 1.122 µM (MAP2K2 (MEK2); 1 h, log[inhibitor] (M) -5.95, ZLYTE, ATP 100): 99%
- inhibition at 0.3715 µM (MAP2K2 (MEK2); 1 h, log[inhibitor] (M) -6.43, ZLYTE, ATP 100): 68%
- inhibition at 0.123 µM (MAP2K2 (MEK2); 1 h, log[inhibitor] (M) -6.91, ZLYTE, ATP 100): 38%
- inhibition at 0.04074 µM (MAP2K2 (MEK2); 1 h, log[inhibitor] (M) -7.39, ZLYTE, ATP 100): 33%
- inhibition at 0.0138 µM (MAP2K2 (MEK2); 1 h, log[inhibitor] (M) -7.86, ZLYTE, ATP 100): 27%
- inhibition at 0.001514 µM (MAP2K2 (MEK2); 1 h, log[inhibitor] (M) -8.82, ZLYTE, ATP 100): 16%
- inhibition at 0.0004898 µM (MAP2K2 (MEK2); 1 h, log[inhibitor] (M) -9.31, ZLYTE, ATP 100): 10%
- inhibition at 0.004571 µM (MAP2K2 (MEK2); 1 h, log[inhibitor] (M) -[…], ZLYTE, ATP 100): 20%
- Apparent fold selectivity (MAP2K2 (MEK2); [2]): 54 fold
- inhibition at 1 µM (MAP2K2 (MEK2); read-out: Inhibition at 1 µM (%), MAP2K2 (MEK2), 1 µM, ZLYTE, ATP 100): 109%
